Data published in patent US7071158B2, “Antioxidant enhancement of therapy for hyperproliferative conditions” (Atherogenics, Inc., priority 1997, dated 2006).

How the values were obtained:
Primary colonocytes [1] = assay: DNA fragmentation after PDTC treatment; format: cell-based, human; conditions: 70 μM
N-87 = assay: Effect of PDTC on cell proliferation (IC50); format: cell-based; conditions: Gastric carcinoma cells, read-out: IC50 required to inhibit cellular proliferation or induce apoptosis
Method: (§1) The effect of PDTC on cellular proliferation or apoptosis was evaluated in a number of normal and cancer cell lines. The IC50 was measured as the concentration of PDTC that inhibited cellular proliferation.

MCF-7 = assay: Effect of PDTC on cell proliferation (IC50); format: cell-based; conditions: Homo sapiens, MCF7, Breast carcinoma cells, read-out: IC50 required to inhibit cellular proliferation or induce apoptosis
Method: as §1

[2] = system: Non-transformed rat intestinal epithelial cells; assay: Effect of PDTC on cell proliferation (IC50); format: cell-based; conditions: Normal cells, read-out: IC50 required to inhibit cellular proliferation or induce apoptosis
Method: as §1

Keratinocytes = assay: Effect of PDTC on cell proliferation (IC50); format: cell-based; conditions: Homo sapiens, Keratinocyte, Normal cells, read-out: IC50 required to inhibit cellular proliferation or induce apoptosis
Method: as §1

MDA MB-468 = assay: Effect of PDTC on cell proliferation (IC50); format: cell-based; conditions: Homo sapiens, Breast carcinoma cells, read-out: IC50 required to inhibit cellular proliferation or induce apoptosis
Method: as §1

PANC-1 = assay: Effect of PDTC on cell proliferation (IC50); format: cell-based; conditions: Homo sapiens, Pancreatic carcinoma cells, read-out: IC50 required to inhibit cellular proliferation or induce apoptosis
Method: as §1

MCF-10WT = assay: Effect of PDTC on cell proliferation (IC50); format: cell-based; conditions: Breast carcinoma cell, Breast carcinoma cells, read-out: IC50 required to inhibit cellular proliferation or induce apoptosis
Method: as §1

Saos-2 = assay: Effect of PDTC on cell proliferation (IC50); format: cell-based; conditions: Homo sapiens, Osteosarcoma, read-out: IC50 required to inhibit cellular proliferation or induce apoptosis
Method: as §1

[3] = system: Primary mammary epithelia; assay: Effect of PDTC on cell proliferation (IC50); format: cell-based; conditions: Homo sapiens, Normal cells, read-out: IC50 required to inhibit cellular proliferation or induce apoptosis
Method: as §1

MCF-10HRas = assay: Effect of PDTC on cell proliferation (IC50); format: cell-based; conditions: Breast carcinoma cell, Breast carcinoma cells, read-out: IC50 required to inhibit cellular proliferation or induce apoptosis
Method: as §1

Primary colonocytes [4] = assay: Effect of PDTC on cell proliferation (IC50); format: cell-based; conditions: Homo sapiens, Normal cells, read-out: IC50 required to inhibit cellular proliferation or induce apoptosis
Method: as §1

AsPo1 = assay: Effect of PDTC on cell proliferation (IC50); format: cell-based; conditions: Pancreatic carcinoma cells, read-out: IC50 required to inhibit cellular proliferation or induce apoptosis
Method: as §1

BxPc3 = assay: Effect of PDTC on cell proliferation (IC50); format: cell-based; conditions: Homo sapiens, BXPC-3, Pancreatic carcinoma cells, read-out: IC50 required to inhibit cellular proliferation or induce apoptosis
Method: as §1

MDA-MB231 = assay: Effect of PDTC on cell proliferation (IC50); format: cell-based; conditions: Homo sapiens, MDA-MB-231, Breast carcinoma cells, read-out: IC50 required to inhibit cellular proliferation or induce apoptosis
Method: as §1

Hs746T = assay: Effect of PDTC on cell proliferation (IC50); format: cell-based; conditions: Homo sapiens, Gastric carcinoma cells, read-out: IC50 required to inhibit cellular proliferation or induce apoptosis
Method: as §1

HCT 15-derived tumors = assay: HCT 15 tumor xenografts in athymic mice; format: in vivo; conditions: HCT 15-derived tumors, after 3 weeks of single agent treatment, before cross-over
Method: HCT 15-derived tumors were generated as described above. Animals were then treated with pyrrolidinedithiocarbamate, in the presence or absence of 5-FU, for 3 weeks. At this point, treatments were discontinued in animals receiving the combined treatment of pyrrolidinedithiocarbamate and 5-FU for 2 months. All other treatment groups received both 5-FU and pyrrolidinedithiocarbamate for the remaining 3 weeks.
Male athymic Balb/c nu/nu mice were obtained from the Harlan Sprague-Dawley Company at 4–6 weeks of age and were quarantined for at least 2 weeks before the study. […] HCT 116 and HCT 15 CRC cell lines were grown in DMEM supplemented with 10% FBS as described above. Cells were harvested through two consecutive trypsinizations, centrifuged at 300 g for 5 minutes, washed twice, and resuspended in sterile phosphate buffered saline. One ×10^6 cells in 0.2 ml were injected subcutaneously between the scapula of 7- to 10-week-old male nude mice.
Tumor volumes were estimated weekly by measuring the maximal length, width, and height. Once tumors reached a mean size of 120 to 150 mm^3, animals received either weekly i.p. injections of pyrrolidinedithiocarbamate (70 μM) or vitamin E (3 mM), 5-FU (40 mg/kg) or saline, or a combination of pyrrolidinedithiocarbamate or vitamin E and 5-FU or 6 weeks. In cross-over experiments, animals received the above treatments for three weeks (with the exception of vitamin E), and then were crossed-over to either the combination treatment of pyrrolidinedithiocarbamate and 5-FU (saline, pyrrolidinedithiocarbamate or 5-FU alone) or discontinued treatment pyrrolidinedithiocarbamate and 5-FU) for the remaining three weeks of the experiment. […] Tumor volumes were recorded weekly until termination of the study.
Tumor tissues were fixed overnight in 4% (v/v) paraformaldehyde and embedded in paraffin according to standard histological procedures. […] The proliferative index (BrDU) and the apoptotic index (TUNEL) were estimated by the percentage of cells scored under a microscope at 200-fold magnification.

HCT 116 = assay: DNA fragmentation after PDTC treatment; format: cell-based, human; conditions: 70 μM
HCT 15 cells = assay: Soft-agar colony formation (anchorage-independent growth); conditions: Homo sapiens, HCT-15, 240 h, read-out: approximate IC50 in soft agar
Method: (§2) FIG. 1A is a graph of the concentration of PDTC versus soft-agar forming units×10^6 HCT 15 and HCT 116 cells (as a percent of control). […] Soft-agar colony formation was measured by seeding HCT 116 or HCT 15 cells in soft agar supplemented with either medium alone (control), or increasing concentrations of pyrrolidinedithiocarbamate (25–200 μM) or vitamin E (0.1–10 mM). Colonies were scored at the end of 10 days incubation at 37° C. Values are representative of three experiments carried out in quadruplicate.
(§3) HCT 116 and HCT 15 cells were seeded in soft agar as described above containing increasing concentrations of either 5-FU (5×10^−8 to 5×10^−5 M) or doxorubicin (1×10^−9 to 1×10^−6 M), in the presence or absence of pyrrolidinedithiocarbamate (70 μM) or vitamin E (3 mM). Colonies were scored after 10 days and IC50 values were calculated as the concentration of 5-FU or doxorubicin required to reduce basal colony formation by 50% (±s.e.m.). Values are representative of three experiments carried out in quadruplicate.

HCT 116 cells = assay: as above; conditions: Homo sapiens, HCT-116, 240 h, read-out: approximate IC50 in soft agar
Method: as §2, §3

DKO-3 = assay: DNA fragmentation after PDTC treatment; format: cell-based; conditions: 70 μM
DLD-1 = assay: DNA fragmentation after PDTC treatment; format: cell-based; conditions: 70 μM
[5] = system: murine small intestine and the murine colon; conditions: mouse, in vivo
Mutant p53 HCT 15 = assay: DNA fragmentation after PDTC treatment; format: cell-based, human; conditions: 70 μM
Wild Type p53 HCA-7 = assay: DNA fragmentation after PDTC treatment; format: cell-based; conditions: 70 μM

S=C(S)N1CCCC1 [PDTC, pyrrolidinedithiocarbamate]
DNA Fragmentation after PDTC Treatment (Primary colonocytes [1]; 3 h): 101 ± 10 % Control | DNA Fragmentation after PDTC Treatment (Primary colonocytes [1]; 6 h): 109 ± 9 % Control | DNA Fragmentation after PDTC Treatment (Primary colonocytes [1]; 12 h): 107 ± 10 % Control | DNA Fragmentation after PDTC Treatment (Primary colonocytes [1]; 24 h): 130 ± 16 % Control | IC50 (N-87): 40 µM | IC50 (MCF-7): 13 µM | IC50 [2]: 450 µM | IC50 (Keratinocytes): 600 µM | IC50 (MDA MB-468): 20 µM | IC50 (PANC-1): 75 µM | IC50 (MCF-10WT): 5 µM | IC50 (Saos-2): 10 µM | IC50 [3]: 650 µM | IC50 (MCF-10HRas): 5 µM | IC50 (Primary colonocytes [4]): 500 µM | IC50 (AsPo1): 70 µM | IC50 (BxPc3): 100 µM | IC50 (MDA-MB231): 10 µM | IC50 (Hs746T): 35 µM | tumor size (HCT 15-derived tumors): 1325+210 mm^3 | DNA Fragmentation after PDTC Treatment (HCT 116; 3 h): 108 ± 11 % Control | DNA Fragmentation after PDTC Treatment (HCT 116; 6 h): 131 ± 21 % Control | DNA Fragmentation after PDTC Treatment (HCT 116; 12 h): 198 ± 23 % Control | DNA Fragmentation after PDTC Treatment (HCT 116; 24 h): 367 ± 49 % Control | IC50 (HCT 15 cells): ~70 µM | IC50 (HCT 116 cells): ~70 µM | DNA Fragmentation after PDTC Treatment (DKO-3; 3 h): 223 ± 11 % Control | DNA Fragmentation after PDTC Treatment (DKO-3; 6 h): 478 ± 16 % Control | DNA Fragmentation after PDTC Treatment (DKO-3; 12 h): 896 ± 23 % Control | DNA Fragmentation after PDTC Treatment (DKO-3; 24 h): 1116 ± 54 % Control | DNA Fragmentation after PDTC Treatment (DLD-1; 3 h): 213 ± 17 % Control | DNA Fragmentation after PDTC Treatment (DLD-1; 6 h): 296 ± 21 % Control | DNA Fragmentation after PDTC Treatment (DLD-1; 12 h): 712 ± 34 % Control | DNA Fragmentation after PDTC Treatment (DLD-1; 24 h): 876 ± 46 % Control | toxicity of 5-FU [5]: substantially reduces the toxicity of 5-FU | DNA Fragmentation after PDTC Treatment (Mutant p53 HCT 15; 3 h): 145 ± 12 % Control | DNA Fragmentation after PDTC Treatment (Mutant p53 HCT 15; 6 h): 259 ± 18 % Control | DNA Fragmentation after PDTC Treatment (Mutant p53 HCT 15; 12 h): 673 ± 34 % Control | DNA Fragmentation after PDTC Treatment (Mutant p53 HCT 15; 24 h): 979 ± 34 % Control | DNA Fragmentation after PDTC Treatment (Wild Type p53 HCA-7; 3 h): 111 ± 13 % Control | DNA Fragmentation after PDTC Treatment (Wild Type p53 HCA-7; 6 h): 126 ± 17 % Control | DNA Fragmentation after PDTC Treatment (Wild Type p53 HCA-7; 12 h): 154 ± 19 % Control | DNA Fragmentation after PDTC Treatment (Wild Type p53 HCA-7; 24 h): 302 ± 35 % Control
